From patent US20230065577A1, “COMBINATIONS” (Recurium IP Holdings, LLC, priority 2019, published 2023) come the findings set out here.

Type in all cases: cell-based
One assay has as its system MV4-11 cells. As to the kind of experiment: CTG Assay (CellTiter-Glo Luminescent Cell Viability Assay), MV4-11. Particulars: Homo sapiens. The method, then:
(§1) Cell proliferation was measured using the CellTiter-Glo® Luminescent Cell Viability Assay. The assay involved the addition of a single reagent (CellTiter-Glo® Reagent) directly to cells cultured in serum-supplemented medium. DMS-53 (ATCC, CRL-2062), MV4-11 (ATCC, CRL-9591), MCF-7 (ATCC, HTB-22) and ZR-75-1 (ATCC, CRL-1500) cells were cultured according to ATCC recommendations and were seeded at 20,000 cells per well.
(§2) Each compound evaluated was prepared as a DMSO stock solution (10 mM). For DMS-53 and MV4-11 cell lines, Compounds 1 and 5a were tested in triplicate using the respective IC50 concentrations indicated in Table 2. The MCF-7 combination assay was performed in duplicate with a 10-point serial dilution curve (1:3 dilution) for Compounds 1 and 5a, and a 10-point serial dilution curve (1:5 dilution) when treated in combination. The highest compound concentration was 10 μM with a 0.1% final DMSO concentration. Plates were incubated at 37° C., 5% CO2 for 72 h and then equilibrated at room temperature for approximately 30 min. […] Luminescence (RLU (relative light unit)) was recorded using a SpectraMAX, M5e plate reader according to CellTiter-Glo protocol. Percent inhibition was calculated using the following formula: % inhibition=(RLU*100/(RLU of the cell background)). IC50 of each compound was calculated using GraphPad Prism by nonlinear regression analysis.
(Cellular ATP, detected with luciferase, serves as a proxy for viable cell number.)

The test system of a further assay is DMS-53 cells. As to the kind of experiment: CTG Assay (CellTiter-Glo Luminescent Cell Viability Assay), DMS-53. Particulars: Homo sapiens. The method, then: as §1, §2
Assay [1] relates to ZR-75-1 breast cancer cells. As to the kind of experiment: CTG Assay (CellTiter-Glo Luminescent Cell Viability Assay), ZR-75-1. The settings on record: Homo sapiens, 72 h. The procedure:
as §1, §2

For assay [2], the system named is MCF-7 breast cancer cells. As to the kind of experiment: CTG Assay (CellTiter-Glo Luminescent Cell Viability Assay), MCF-7 combination assay. The settings on record: Homo sapiens, MCF7, 72 h, 10-point dilution, top 10 μM. The method, then: as §1, §2
[3] abbreviates: single agent, IC50 used as test concentration, read-out: Concentration (respective IC50 concentration).
Setting [4] is: read-out: Absolute IC50 Based on % Inhibition.
[5] abbreviates: read-out: Relative IC50 Based on % Inhibition.

The structures appear in SMILES notation. Where two headings read alike, the source gives them in different places.

For orientation: inhibition means the change of the read-out against control, counted positive when it falls. On to `C=CCn1c(=O)c2cnc(Nc3ccc(N4CCN(C)CC4)cc3)nc2n1-c1cccc(C(C)(C)O)n1` [Compound 1], for which the inhibition at 0.015 µM with MV4-11 cells (15 nM, 72 h, triplicate) amounted to 37%. Also, the IC50 amounted to 15 nM in the assay with MV4-11 cells (setting [3]); 650 nM with DMS-53 cells (setting [3]); 1770 nM in assay [1] (setting [4]); 1240 nM in assay [1] (setting [5]); 346 nM in assay [2] (setting [4]); 307 nM in assay [2] (setting [5]). Moreover, the inhibition at 0.65 µM in the assay with DMS-53 cells (650 nM, 72 h, triplicate) was 37%.
